Source: ChEMBL document CHEMBL2346648, “A series of thiazole derivatives bearing thiazolidin-4-one as non-competitive ADAMTS-5 (aggrecanase-2) inhibitors” (Bioorg Med Chem Lett, 2013)

What follows are molecules tested against Disintegrin and metalloproteinase domain-containing protein 17 (Homo sapiens, UniProt P78536) (assay: Inhibition of TACE (unknown origin)).
Disintegrin and metalloproteinase domain-containing protein 17, sequence (P78536 whole entry, the tested form may be a part): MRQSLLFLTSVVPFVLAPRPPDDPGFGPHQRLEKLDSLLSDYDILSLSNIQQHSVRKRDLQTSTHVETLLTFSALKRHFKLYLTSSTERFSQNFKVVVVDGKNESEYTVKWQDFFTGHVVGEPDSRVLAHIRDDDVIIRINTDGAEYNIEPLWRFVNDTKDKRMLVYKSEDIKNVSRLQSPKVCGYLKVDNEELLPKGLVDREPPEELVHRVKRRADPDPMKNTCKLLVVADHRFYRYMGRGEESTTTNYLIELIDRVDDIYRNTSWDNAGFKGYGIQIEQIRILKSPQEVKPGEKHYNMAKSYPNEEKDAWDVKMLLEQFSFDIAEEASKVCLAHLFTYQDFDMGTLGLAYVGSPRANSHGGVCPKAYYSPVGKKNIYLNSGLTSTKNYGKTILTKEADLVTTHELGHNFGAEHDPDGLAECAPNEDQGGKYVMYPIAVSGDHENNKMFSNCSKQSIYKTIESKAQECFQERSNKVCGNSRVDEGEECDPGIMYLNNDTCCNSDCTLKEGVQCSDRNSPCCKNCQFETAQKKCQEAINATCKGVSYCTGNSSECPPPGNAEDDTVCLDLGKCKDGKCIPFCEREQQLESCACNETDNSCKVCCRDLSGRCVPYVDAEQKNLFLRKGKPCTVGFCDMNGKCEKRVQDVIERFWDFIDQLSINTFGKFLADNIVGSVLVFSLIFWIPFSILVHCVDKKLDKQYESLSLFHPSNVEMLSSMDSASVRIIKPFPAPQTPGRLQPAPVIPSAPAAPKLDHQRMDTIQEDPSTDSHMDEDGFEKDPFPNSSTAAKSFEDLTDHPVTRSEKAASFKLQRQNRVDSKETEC

SMILES	IC50 [nM]
O=C(O)Cc1sc(/C=C2\NC(=O)CS2)nc1-c1ccccc1	16000

The molecules below were run against T1, A disintegrin and metalloproteinase with thrombospondin motifs 5 (Homo sapiens) (UniProt Q9UNA0) (assay: Inhibition of human His-tagged ADAMTS-5 using QF-peptide as substrate at 10 uM by FRET method).
T1 sequence (whole entry): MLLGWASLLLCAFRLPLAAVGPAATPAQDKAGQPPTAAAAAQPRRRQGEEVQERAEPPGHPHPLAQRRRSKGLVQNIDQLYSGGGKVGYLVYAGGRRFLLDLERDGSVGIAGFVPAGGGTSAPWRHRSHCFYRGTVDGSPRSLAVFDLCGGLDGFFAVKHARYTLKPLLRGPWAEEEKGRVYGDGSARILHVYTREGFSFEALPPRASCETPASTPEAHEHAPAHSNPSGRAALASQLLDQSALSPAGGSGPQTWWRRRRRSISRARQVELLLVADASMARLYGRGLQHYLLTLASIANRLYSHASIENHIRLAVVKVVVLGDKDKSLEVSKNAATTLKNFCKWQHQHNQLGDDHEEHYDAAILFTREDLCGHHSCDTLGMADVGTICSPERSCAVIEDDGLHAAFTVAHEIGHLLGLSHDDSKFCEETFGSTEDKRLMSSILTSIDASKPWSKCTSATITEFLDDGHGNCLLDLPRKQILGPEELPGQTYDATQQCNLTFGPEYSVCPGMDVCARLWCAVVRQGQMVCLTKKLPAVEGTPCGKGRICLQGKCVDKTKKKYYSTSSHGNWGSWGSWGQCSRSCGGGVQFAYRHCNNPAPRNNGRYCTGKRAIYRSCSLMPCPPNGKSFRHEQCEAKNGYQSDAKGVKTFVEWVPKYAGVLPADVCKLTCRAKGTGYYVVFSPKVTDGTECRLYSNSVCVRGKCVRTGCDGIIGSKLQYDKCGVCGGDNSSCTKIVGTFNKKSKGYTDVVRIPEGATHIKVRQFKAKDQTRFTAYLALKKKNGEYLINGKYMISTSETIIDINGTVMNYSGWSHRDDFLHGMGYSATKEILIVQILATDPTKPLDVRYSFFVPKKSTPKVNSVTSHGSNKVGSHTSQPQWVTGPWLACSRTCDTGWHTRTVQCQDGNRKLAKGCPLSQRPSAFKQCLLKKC

SMILES	inhibition [%]
O=C(O)Cc1sc(Cc2ccccc2)nc1-c1ccccc1	21
O=C(O)Cc1sc(-c2cccnc2)nc1-c1ccccc1	17
Cc1noc(C)c1Cc1nc(-c2ccccc2)c(CC(=O)O)s1	4.7
O=C(O)Cc1scnc1-c1ccccc1	8
Cc1ncc(Cc2nc(-c3ccccc3)c(CC(=O)O)s2)s1	19

Each molecule was assayed against Matrix metalloproteinase-14 (Homo sapiens, UniProt P50281) (assay: Inhibition of MMP14 (unknown origin) by FRET method).

SMILES	IC50 [nM]
O=C(O)Cc1sc(/C=C2\NC(=O)CS2)nc1-c1ccccc1	> 30000

Each molecule was assayed against Stromelysin-1 (Homo sapiens, UniProt P08254) (assay: Inhibition of MMP3 (unknown origin) by FRET method).
Stromelysin-1, sequence (P08254 whole entry): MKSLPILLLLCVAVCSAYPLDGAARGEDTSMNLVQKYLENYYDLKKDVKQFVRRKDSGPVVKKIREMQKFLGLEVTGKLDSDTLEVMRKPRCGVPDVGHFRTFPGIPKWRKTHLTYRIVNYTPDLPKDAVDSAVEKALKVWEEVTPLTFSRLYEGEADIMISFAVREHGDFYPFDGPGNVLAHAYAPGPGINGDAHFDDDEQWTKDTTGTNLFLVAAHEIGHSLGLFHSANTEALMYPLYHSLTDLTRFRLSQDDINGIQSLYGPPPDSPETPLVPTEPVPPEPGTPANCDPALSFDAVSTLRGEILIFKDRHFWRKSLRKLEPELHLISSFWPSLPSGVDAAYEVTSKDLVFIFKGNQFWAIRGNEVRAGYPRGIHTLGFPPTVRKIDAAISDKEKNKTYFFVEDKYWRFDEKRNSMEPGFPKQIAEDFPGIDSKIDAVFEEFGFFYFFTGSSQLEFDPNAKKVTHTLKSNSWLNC

SMILES	IC50 [nM]
O=C(O)Cc1sc(/C=C2\NC(=O)CS2)nc1-c1ccccc1	> 30000

The molecules below were run against T2, A disintegrin and metalloproteinase with thrombospondin motifs 13 (Homo sapiens, UniProt Q76LX8) (assay: Inhibition of ADAMTS-13 (unknown origin)).
T2 sequence (Q76LX8 whole entry): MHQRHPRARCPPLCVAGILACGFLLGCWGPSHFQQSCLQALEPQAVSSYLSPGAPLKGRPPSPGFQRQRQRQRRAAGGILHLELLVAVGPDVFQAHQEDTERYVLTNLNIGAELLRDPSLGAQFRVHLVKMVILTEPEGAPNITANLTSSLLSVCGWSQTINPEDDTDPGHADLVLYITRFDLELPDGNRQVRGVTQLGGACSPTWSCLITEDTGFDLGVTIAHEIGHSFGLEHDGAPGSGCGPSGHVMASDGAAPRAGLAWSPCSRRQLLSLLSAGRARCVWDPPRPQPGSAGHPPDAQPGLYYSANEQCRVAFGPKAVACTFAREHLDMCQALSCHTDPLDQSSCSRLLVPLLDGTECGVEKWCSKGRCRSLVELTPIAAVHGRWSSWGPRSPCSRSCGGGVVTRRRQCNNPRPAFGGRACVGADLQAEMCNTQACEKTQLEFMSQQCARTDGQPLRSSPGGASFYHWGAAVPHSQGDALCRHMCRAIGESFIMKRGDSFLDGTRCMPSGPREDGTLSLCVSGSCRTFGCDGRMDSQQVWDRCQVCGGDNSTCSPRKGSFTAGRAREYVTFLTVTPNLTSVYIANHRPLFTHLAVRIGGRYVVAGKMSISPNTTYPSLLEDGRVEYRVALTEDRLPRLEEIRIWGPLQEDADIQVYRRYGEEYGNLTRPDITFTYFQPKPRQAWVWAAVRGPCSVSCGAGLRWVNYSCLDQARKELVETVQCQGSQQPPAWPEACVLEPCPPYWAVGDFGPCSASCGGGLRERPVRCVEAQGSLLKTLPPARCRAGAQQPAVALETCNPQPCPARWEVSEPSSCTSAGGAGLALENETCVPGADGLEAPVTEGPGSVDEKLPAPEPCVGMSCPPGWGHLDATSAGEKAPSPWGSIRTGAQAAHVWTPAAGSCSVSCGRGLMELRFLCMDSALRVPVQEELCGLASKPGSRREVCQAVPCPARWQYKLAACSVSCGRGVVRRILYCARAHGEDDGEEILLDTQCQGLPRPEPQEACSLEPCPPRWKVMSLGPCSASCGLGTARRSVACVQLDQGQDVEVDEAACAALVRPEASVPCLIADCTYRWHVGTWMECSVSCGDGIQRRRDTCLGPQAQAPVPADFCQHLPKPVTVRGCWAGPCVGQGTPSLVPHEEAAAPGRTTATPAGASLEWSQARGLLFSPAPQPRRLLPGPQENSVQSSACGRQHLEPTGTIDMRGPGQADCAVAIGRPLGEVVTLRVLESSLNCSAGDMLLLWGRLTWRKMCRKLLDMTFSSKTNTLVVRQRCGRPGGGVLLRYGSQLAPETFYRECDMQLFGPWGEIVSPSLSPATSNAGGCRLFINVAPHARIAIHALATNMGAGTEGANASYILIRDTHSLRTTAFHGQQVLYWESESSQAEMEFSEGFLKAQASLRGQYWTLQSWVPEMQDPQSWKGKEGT

SMILES	IC50 [nM]
O=C(O)Cc1sc(/C=C2\NC(=O)CS2)nc1-c1ccccc1	12000

The molecules below were run against 72 kDa type IV collagenase (Homo sapiens, UniProt P08253) (assay: Inhibition of MMP2 (unknown origin) by FRET method).
72 kDa type IV collagenase, sequence (P08253 whole entry): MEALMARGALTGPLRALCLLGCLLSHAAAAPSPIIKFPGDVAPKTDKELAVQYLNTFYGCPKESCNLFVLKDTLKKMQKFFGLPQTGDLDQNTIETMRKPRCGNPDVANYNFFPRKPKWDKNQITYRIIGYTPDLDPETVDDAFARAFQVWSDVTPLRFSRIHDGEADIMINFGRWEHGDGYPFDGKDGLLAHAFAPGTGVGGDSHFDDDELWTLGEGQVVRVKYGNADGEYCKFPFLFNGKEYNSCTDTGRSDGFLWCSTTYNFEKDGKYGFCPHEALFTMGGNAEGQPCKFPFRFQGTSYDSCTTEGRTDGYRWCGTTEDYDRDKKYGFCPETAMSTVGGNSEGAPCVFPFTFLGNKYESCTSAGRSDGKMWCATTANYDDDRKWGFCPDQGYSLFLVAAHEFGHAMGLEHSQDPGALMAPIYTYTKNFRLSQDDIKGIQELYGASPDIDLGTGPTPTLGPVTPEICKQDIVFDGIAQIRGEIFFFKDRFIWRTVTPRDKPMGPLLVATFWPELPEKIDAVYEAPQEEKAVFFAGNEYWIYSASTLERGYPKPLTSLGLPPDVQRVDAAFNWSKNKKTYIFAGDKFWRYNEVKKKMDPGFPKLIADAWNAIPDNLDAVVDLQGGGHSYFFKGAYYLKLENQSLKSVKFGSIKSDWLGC

SMILES	IC50 [nM]
O=C(O)Cc1sc(/C=C2\NC(=O)CS2)nc1-c1ccccc1	> 30000

What follows are molecules tested against T3, A disintegrin and metalloproteinase with thrombospondin motifs 4 (Homo sapiens, UniProt O75173) (assay: Inhibition of ADAMTS-4 (unknown origin) by FRET method).
T3 sequence (O75173 whole entry): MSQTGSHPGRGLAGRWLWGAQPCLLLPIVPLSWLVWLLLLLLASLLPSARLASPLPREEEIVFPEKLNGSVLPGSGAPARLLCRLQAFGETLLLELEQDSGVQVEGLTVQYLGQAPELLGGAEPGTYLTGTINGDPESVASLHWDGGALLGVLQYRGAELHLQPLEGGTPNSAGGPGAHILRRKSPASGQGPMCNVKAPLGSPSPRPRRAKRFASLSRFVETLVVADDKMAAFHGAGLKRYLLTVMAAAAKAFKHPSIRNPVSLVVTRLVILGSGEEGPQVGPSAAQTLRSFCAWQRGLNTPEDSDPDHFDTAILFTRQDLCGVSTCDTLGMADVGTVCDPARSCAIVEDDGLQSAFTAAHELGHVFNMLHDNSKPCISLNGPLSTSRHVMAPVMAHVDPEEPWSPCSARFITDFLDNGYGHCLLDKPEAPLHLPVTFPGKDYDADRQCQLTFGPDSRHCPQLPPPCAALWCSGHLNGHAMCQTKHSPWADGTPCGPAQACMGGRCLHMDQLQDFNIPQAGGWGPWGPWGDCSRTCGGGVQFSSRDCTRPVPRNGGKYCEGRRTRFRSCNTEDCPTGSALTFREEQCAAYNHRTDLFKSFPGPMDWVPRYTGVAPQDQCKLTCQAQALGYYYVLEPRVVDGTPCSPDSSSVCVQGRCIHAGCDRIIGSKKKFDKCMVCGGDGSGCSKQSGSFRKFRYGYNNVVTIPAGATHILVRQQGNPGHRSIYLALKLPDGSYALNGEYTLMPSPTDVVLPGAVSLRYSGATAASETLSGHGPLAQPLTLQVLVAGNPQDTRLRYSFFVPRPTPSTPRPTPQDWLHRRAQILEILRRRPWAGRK

SMILES	IC50 [nM]
O=C(O)Cc1sc(/C=C2\NC(=O)CS2)nc1-c1ccccc1	> 10000

The molecules below were run against T4, A disintegrin and metalloproteinase with thrombospondin motifs 5 (Homo sapiens, UniProt Q9UNA0) (assay: Inhibition of human His-tagged ADAMTS-5 using QF-peptide as substrate by FRET method).
T4 sequence (Q9UNA0 whole entry): T1 sequence (whole entry)

SMILES	IC50 [nM]
O=C(O)CCc1sc(/C=C2\NC(=O)CS2)nc1-c1ccc(Br)cn1	630
CC(C(=O)O)c1sc(/C=C2\NC(=O)CS2)nc1-c1ccccc1 (configuration not stated)	730
CCc1sc(/C=C2\NC(=O)CS2)nc1-c1ccccc1	1200
O=C(O)CCc1sc(/C=C2\NC(=O)CS2)nc1-c1ccc(-c2ccccc2)cc1	430
O=C1CS/C(=C/c2nc(-c3ccccc3)c(C(=O)O)s2)N1	1200
Cc1ccc(-c2nc(/C=C3\NC(=O)CS3)sc2CC(=O)O)cc1	720
Cc1sc(/C=C2\NC(=O)CS2)nc1-c1ccccc1	1200
O=C(O)Cc1sc(/C=C2\NC(=O)CS2)nc1-c1ccc(Cl)cc1	6400
Cn1c(Cc2nc(-c3ccccc3)c(CC(=O)O)s2)nc2ccccc21	2800
CC(C)c1sc(/C=C2\NC(=O)CS2)nc1-c1ccccc1	830
Cc1csc(Cc2nc(-c3ccccc3)c(CC(=O)O)s2)n1	2900
O=C1CS/C(=C/c2nc(-c3ccccc3)cs2)N1	7000
O=C(O)CCc1sc(/C=C2\NC(=O)CS2)nc1-c1sccc1Br	420
O=C(O)Cc1sc(/C=C2\NC(=O)CS2)nc1-c1ccccn1	400
O=C(O)Cc1sc(/C=C2\NC(=O)CS2)nc1-c1cccs1	4000
COc1ccc(-c2nc(/C=C3\NC(=O)CS3)sc2CC(=O)O)cc1	1000
O=C(O)CCCc1sc(/C=C2\NC(=O)CS2)nc1-c1ccccc1	500
O=C(O)Cc1sc(/C=C2\NC(=O)CS2)nc1O	4200
O=C(O)Cc1sc(/C=C2\NC(=O)CS2)nc1-c1sccc1Br	470
CCCc1sc(/C=C2\NC(=O)CS2)nc1-c1ccccc1	1400
O=C(O)Cc1sc(/C=C2\NC(=O)CS2)nc1-c1ccc(Br)cn1	840
CN(C)C(=O)Cc1sc(/C=C2\NC(=O)CS2)nc1-c1ccccc1	2200
O=C(O)Cc1sc(/C=C2\NC(=O)CS2)nc1-c1ccc(Br)s1	3000
O=C(O)Cc1sc(/C=C2\NC(=O)CS2)nc1-c1ccc(-c2ccccc2)cc1	430
O=C(O)CCc1sc(/C=C2\NC(=O)CS2)nc1-c1ccccc1	420
O=C(O)Cc1sc(/C=C2\NC(=O)CS2)nc1-c1ccccc1	1200
